Read-outs that look alike come from different tables or passages of the source.
How the values were obtained:
[1] = system: E. coli SSO; assay: T-RT retention of sfGFP mRNA extracted from SSO in vivo translation experiments; type: cell-based; parameters: unit of the concentration uncertain; settings: for T-RT retention: mRNA sfGFP(GXT), n = 3
Protocol: (§1) Reverse transcription. The reverse transcription reactions were conducted according to the manufacturer's instructions of each reverse transcriptase with the following modifications. In all reverse transcription reactions, 1 μg mRNA or 20 ng tRNA, 0.5 mM dNTP and 0.2 mM dNaMTP or dTPT3TP per 20 μL reaction were used unless stated otherwise. For SuperScript III (18080044, ThermoFisher), reactions were incubated at 55° C. for 45 min, inactivated at 70° C. for 15 min, followed by RNase H (M0297S, New England Biolabs, (NEB)) and RNase A (R1253, ThermoFisher) digestion. For SuperScript IV (18090010, ThermoFisher), reactions were incubated at 55° C. for 20 min, inactivated at 80° C. for 10 min, followed by RNase H, RNase A, and Proteinase K (P8107S, New England Biolabs, (NEB)) digestion. For AMV reverse transcriptase (M0277S, New England Biolabs, (NEB)), reactions were incubated at 42° C. for 60 min, inactivated at 80° C. for 5 min, followed by RNase H and RNase A digestion. After digestion, 10 μL of each reaction mixture was denatured with RNA loading dye (B0363S, New England Biolabs, (NEB)) and subjected to 10% denaturing polyacrylamide gel electrophoresis with 8 M urea (CAS 57-13-6, Sigma Aldrich) for cDNA detection. The other 10 μL of the reaction mixture was purified using a commercial RNA purification kit (D7011, Zymo Research; Irvine, CA) and the product cDNA was quantified using Qubit.
(§2) SSO in vivo translation. A 2 mL overnight culture of YZ3+pGEX-MbPylRS TetR cells in 2×YT (Y2377, Sigma Aldrich) supplemented with 50 mM potassium phosphate (CAS 7778-77-0, Sigma Aldrich), 5 μg/mL chloramphenicol (CAS 56-75-7, Sigma Aldrich) and 100 μg/mL carbenicillin (C1613, Sigma Aldrich) (herein afterward referred to in this section as “media”) was diluted to an OD600 of 0.03 in the same media, and grown to an OD600 of 0.3 to 0.4. The culture was rapidly cooled in an ice water bath for 5 min with shaking, and then pelleted at 3,200×g for 10 min. Cells were next washed twice with one culture volume of pre-chilled autoclaved Milli-Q H2O. Cells were then resuspended in additional chilled H2O, to an OD600 of 50-60. For each sample tested, 50 μL of the resulting electrocompetent cells were combined with 0.5 ng of Golden Gate assembled plasmid containing the UBP embedded within the sfGFP and tRNA^Pyl genes and then transferred to a pre-chilled electroporation cuvette (0.2 cm gap). Cells were electroporated (Gene Pulser II; Bio-Rad) according to the manufacturer's instructions for bacteria ([…], 2.5 μF, and 200Ω resistor), then immediately diluted with 950 μL of pre-warmed media. 10 μL of this dilution was then diluted with pre-warmed media to a final volume of 50 μL, supplemented with […] and 10 μM dTPT3TP. The transformation was allowed to recover at 37° C. for 1 h. The recovery culture was plated on solid media supplemented with 50 μg/mL zeocin (R25001, ThermoFisher), 150 μM dNaMTP, 10 μM dTPT3TP, and 2% w/v agar, then allowed to grow at 37° C. overnight.
(§3) Single colonies were isolated and used to inoculate 300 μL liquid media supplemented with 50 μg/mL zeocin (herein afterward referred to in this section as “growth media”) and provided 150 μM dNaMTP, and 10 μM dTPT3TP, then monitored for cell growth via OD600 using an Envision 2103 Multilabel Plate Reader (Perkin Elmer) with a 590/20 nm filter. Cells were collected at an OD600 of ˜0.7, and then an aliquot (100 μL) was subjected to miniprep. Isolated plasmids were subjected to biotin shift assay to determine UBP retention. […] At an OD600 of cultures were supplemented with 250 μM NaMTP and 30 μM TPT3TP unless stated otherwise, as well as 10 mM of the ncAA N6-(2-azidoethoxy)-carbonyl-L-lysine (AzK). The culture was then grown for and additional 20 min before adding IPTG (CAS 367-93-1, Sigma Aldrich) to a concentration of 1 mM and grown for 1 h to induce the transcription of the T7 RNA polymerase, the tRNA^Pyl, and the PylRS. […]

[2] = system: E. coli SSO; assay: T-RT retention of M. mazei tRNA extracted from SSO in vivo translation experiments; type: cell-based; parameters: unit of the concentration uncertain; settings: for T-RT retention: tRNA(AYC), n = 3
Protocol: as §1, §2, §3

[3] = system: SuperScript III reverse transcriptase; settings: 10 ng RNA per reaction, replicate 1, unnatural dNTP supplied, 55 C

With `COc1cc2ccccc2cc1[C@@H]1O[C@H](COP(=O)(O)OP(=O)(O)OP(=O)(O)O)[C@@H](O)[C@H]1O` [NaMTP] the “retention of NaM in the mRNA as NaMTP concentration was decreased” value ([1]; TPT3TP held constant at 250 µM, until NaMTP dropped to less than 50 μM) was “remained high”, the T-RT retention ([1]; NaMTP concentration 12.5 µM) was 0.70 and the T-RT retention ([1]; NaMTP concentration 25 µM) was 0.81. For the same compound, the T-RT retention ([1]; NaMTP concentration 50 µM) was 0.88, the T-RT retention ([1]; NaMTP concentration 125 µM) was 0.94 and the T-RT retention ([1]; NaMTP concentration 250 µM) was 0.93.

In the case of `O=P(O)(O)OP(=O)(O)OP(=O)(O)OC[C@H]1O[C@@H](n2ccc3ccsc3c2=S)[C@H](O)[C@@H]1O` [TPT3TP], the “retention of TPT3 in the tRNA as TPT3TP concentration was varied” value ([2]; NaMTP held constant at 250 (unit uncertain), even at the lowest concentration examined (10 μM)) is reported as “remained high”, the T-RT retention ([2]; TPT3TP concentration 12.5 (unit uncertain)) is reported as 0.95 and the T-RT retention ([2]; TPT3TP concentration 25 (unit uncertain)) is reported as 0.97. It also gave a T-RT retention ([2]; TPT3TP concentration 50 (unit uncertain)) of 0.98, a T-RT retention ([2]; TPT3TP concentration 125 (unit uncertain)) of 0.95 and a T-RT retention ([2]; TPT3TP concentration 250 (unit uncertain)) of 0.94.

M. mazei tRNA with NaM anticodon showed an activity (full-length product ratio) ([3]; NaM ribonucleotide at second nucleotide of anticodon, 0.8789 at 500 ng) of 0.973.

For M. mazei tRNA with TPT3 anticodon, the activity (full-length product ratio) ([3]; TPT3 ribonucleotide at second nucleotide of anticodon, 0.4423 at 500 ng) was 0.917.
